Measured values reported in PubChem BioAssay (NCI).
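These data come from cells grown in 96-well plates and exposed to compound for 48 hours at five concentrations. GI50 = concentration required for 50% inhibition of growth. TGI: concentration producing complete growth inhibition.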

Legend:
Experiment in all cases: DTP human tumour cell line panel, 48 h
[1] = system: 786-0 renal
[2] = system: A498 renal
[3] = system: A549 NSCLC
[4] = system: ACHN renal
[5] = system: BT-549 breast
[6] = system: CAKI-1 renal
[7] = system: CCRF-CEM leukemia
[8] = system: COLO 205 colon
[9] = system: DU-145 prostate
[10] = system: EKVX NSCLC
[11] = system: HCC-2998 colon
[12] = system: HCT-116 colon
[13] = system: HCT-15 colon
[14] = system: HL-60(TB) leukemia
[15] = system: HOP-62 NSCLC
[16] = system: HOP-92 NSCLC
[17] = system: HS 578T breast
[18] = system: HT29 colon
[19] = system: IGROV1 ovarian
[20] = system: K-562 leukemia
[21] = system: KM12 colon
[22] = system: LOX IMVI melanoma
[23] = system: M14 melanoma
[24] = system: MALME-3M melanoma
[25] = system: MCF7 breast
[26] = system: MDA-MB-231 breast
[27] = system: MDA-MB-435
[28] = system: MOLT-4 leukemia
[29] = system: NCI-H226 lung

CCCS(=O)(=O)Nc1ccc(F)c(C(=O)c2c[nH]c3ncc(Cl)cc23)c1F
GI50 [1]: 10.7 µM
TGI [1]: 74.9 µM
GI50 [2]: 5.14 µM
TGI [2]: 24 µM
GI50 [3]: 9.87 µM
TGI [3]: 56.5 µM
GI50 [4]: 3.78 µM
TGI [4]: 66.4 µM
GI50 [5]: 13.3 µM
TGI [5]: 57.9 µM
GI50 [6]: 3.65 µM
TGI [6]: 56.9 µM
GI50 [7]: 16.6 µM
TGI [7]: 99.1 µM
GI50 [8]: 0.116 µM
TGI [8]: 17.3 µM
GI50 [9]: 7.55 µM
TGI [9]: 80.6 µM
GI50 [10]: 18.3 µM
TGI [10]: 80.9 µM
GI50 [11]: 17.7 µM
TGI [11]: 72.4 µM
GI50 [12]: 6.21 µM
TGI [12]: 62.7 µM
GI50 [13]: 6.62 µM
TGI [13]: > 97.3 µM
GI50 [14]: 20 µM
TGI [14]: 57.4 µM
GI50 [15]: 10.2 µM
TGI [15]: 65.8 µM
GI50 [16]: 3.2 µM
TGI [16]: 15.4 µM
GI50 [17]: 3.9 µM
TGI [17]: 26.7 µM
GI50 [18]: 0.2 µM
TGI [18]: 21.8 µM
GI50 [19]: 5 µM
TGI [19]: 75.4 µM
GI50 [20]: 9.87 µM
TGI [20]: > 81.5 µM
GI50 [21]: 11.4 µM
TGI [21]: > 79.8 µM
GI50 [22]: 2.05 µM
TGI [22]: 31.1 µM
GI50 [23]: 0.109 µM
TGI [23]: 5.18 µM
GI50 [24]: 0.0281 µM
TGI [24]: 0.174 µM
GI50 [25]: 20.2 µM
TGI [25]: 69.9 µM
GI50 [26]: 9.09 µM
TGI [26]: 33.7 µM
GI50 [27]: 0.337 µM
TGI [27]: 29.6 µM
GI50 [28]: 14.7 µM
TGI [28]: > 83 µM
GI50 [29]: 16.2 µM
TGI [29]: 78.1 µM
